Drawing on patent CN108864033A, “苯基取代的酰肼衍生物及其用途” (Guangdong HEC Pharmaceutical Co Ltd, priority 2017, dated 2018), this text covers EC50 for three compounds.

Broadly, the EC50 is the concentration needed to bring the measured effect to its halfway point. A higher EC50 goes with weaker potency.

The experiment deals with glutamate-induced oxidative stress injury of HT22 cells (谷氨酸诱导的HT22细胞氧化应激损伤). Description: Protection of HT22 cells against glutamate-induced oxidative stress injury (LDH release, cell viability). Conditions: HT-22, HT22 mouse hippocampal neuronal cells, 15 mM glutamate, 24 h, 10 concentrations, 0.25% DMSO. The class given is cell-based. In general terms: LDH in the medium is a marker of cell lysis.
As to `CC(=O)N(/N=C/c1ccc2c(c1)OCO2)c1ccc(C)cc1C` [实施例3, (E)-N'-(苯并-1,3-二恶环戊烷-5-亚甲基)-N-(2,4-二甲苯基)乙酰肼], the midpoint of the response, the EC50, lay at 4120 nM.

`Cc1ccc(N(/N=C/c2ccc(Cl)cc2Cl)C(=O)C(F)(F)F)c(C)c1` [实施例2, (E)-N'-(2,4-二氯苯亚甲基)-N-(2,4-二甲苯基)-2,2,2-三氟乙酰肼] showed an EC50 of 130 nM.

On to `Cc1ccc(N(/N=C/c2ccc3c(c2)OCO3)C(=O)C(F)(F)F)c(C)c1` [实施例1, (E)-N'-(苯并-1,3-二恶环戊烷-5-亚甲基)-N-(2,4-二甲苯基)-2,2,2-三氟乙酰肼], for which the EC50 is 130 nM.
